Test results taken from patent publication US9085576B2 (AMGEN INC., priority 2013, dated 2015).

What was measured:
[1] = molecular target: Beta Secretase enzyme (BACE) (Homo sapiens (Human), UniProt P56817); experiment: In vitro enzymatic BACE FRET assay; type: biochemical; conditions: read-out: BACE1 Enzyme assay IC50
BACE = BACE (Homo sapiens (Human), UniProt P56817); experiment: In vitro BACE cell-based assay (Aβ40 in conditioned medium, sandwich ELISA)
Cathepsin D (Cat D) = Cathepsin D (Cat D) (Homo sapiens (Human), UniProt P07339); experiment: In vitro enzymatic Cathepsin D (Cat D) FRET assay; type: biochemical; conditions: read-out: CatD IC50
Sequence of Cathepsin D (Cat D) (P07339 65-412, species assumed): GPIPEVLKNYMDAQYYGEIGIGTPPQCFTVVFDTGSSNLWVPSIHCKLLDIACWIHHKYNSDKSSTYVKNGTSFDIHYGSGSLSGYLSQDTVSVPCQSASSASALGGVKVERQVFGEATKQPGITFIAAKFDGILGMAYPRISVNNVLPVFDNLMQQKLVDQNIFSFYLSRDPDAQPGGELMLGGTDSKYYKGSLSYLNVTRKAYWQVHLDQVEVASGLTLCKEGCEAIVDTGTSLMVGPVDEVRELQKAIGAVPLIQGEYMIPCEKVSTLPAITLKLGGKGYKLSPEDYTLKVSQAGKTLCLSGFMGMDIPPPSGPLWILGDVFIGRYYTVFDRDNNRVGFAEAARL

Sequence of BACE (P56817 46-501, species assumed): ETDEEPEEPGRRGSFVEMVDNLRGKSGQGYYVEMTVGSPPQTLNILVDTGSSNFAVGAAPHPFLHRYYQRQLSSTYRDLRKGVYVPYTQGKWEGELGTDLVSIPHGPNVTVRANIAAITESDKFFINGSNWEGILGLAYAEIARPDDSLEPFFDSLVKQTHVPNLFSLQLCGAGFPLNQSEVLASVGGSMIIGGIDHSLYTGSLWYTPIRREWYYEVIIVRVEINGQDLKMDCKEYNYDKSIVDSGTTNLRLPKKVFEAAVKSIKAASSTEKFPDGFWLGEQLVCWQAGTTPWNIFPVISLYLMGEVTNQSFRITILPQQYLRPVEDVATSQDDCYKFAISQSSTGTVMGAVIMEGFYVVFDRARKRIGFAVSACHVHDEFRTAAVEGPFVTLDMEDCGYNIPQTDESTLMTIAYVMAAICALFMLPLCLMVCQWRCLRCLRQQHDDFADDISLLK
Sequence of Beta Secretase enzyme (BACE) (P56817 46-501): as the sequence (P56817 46-501, species assumed) above

| Structure (SMILES) | IC50 [1] [µM] | IC50 (BACE) [µM] | IC50 (Cathepsin D (Cat D)) [µM] |
| --- | --- | --- | --- |
| NC1=N[C@@](c2cc(NC(=O)c3coc(C#CC4CC4)n3)ccc2F)(C(F)F)[C@H]2C[C@H]2O1 [Example 151, N-(3-((1R,5S,6R)-3-amino-5-(difluoromethyl)-2-oxa-4-azabicyclo[4.1.0]hept-3-en-5-yl)-4-fluorophenyl)-2-(cyclopropylethynyl) oxazole-4-carboxamide] | 24.8 | 1.07 | 302 |
| Cc1cc(OC(F)F)cnc1C(=O)Nc1ccc(Cl)c([C@@]2(C(F)F)N=C(N)O[C@@H]3C[C@@H]32)c1 [Example 212, N-(3-((1R,5S,6R)-3-amino-5-(difluoromethyl)-2-oxa-4-azabicyclo[4.1.0]hept-3-en-5-yl)-4-chlorophenyl)-5-(difluoromethoxy)-3-methylpicolinamide] | 0.0469 | 0.0385 | 928 |
| NC1=N[C@](CF)(c2cc(NC(=O)c3ccc(Cl)cn3)cnc2F)[C@H]2C[C@H]2O1 [Example 231, N-(5-((1R,5S,6R)-3-amino-5-(fluoromethyl)-2-oxa-4-azabicyclo[4.1.0]hept-3-en-5-yl)-6-fluoropyridin-3-yl)-5-chloropicolinamide] | 0.165 | 0.0277 | 390 |
| NC1=N[C@](CF)(c2cc(Nc3nccc4cc(Cl)cnc34)cc(F)c2F)[C@H]2C[C@H]2O1 [Example 342, (1R,5S,6R)-5-(5-((3-chloro-1,7-naphthyridin-8-yl)amino)-2,3-difluorophenyl)-5-(fluoromethyl)-2-oxa-4-azabicyclo[4.1.0]hept-3-en-3-amine] | 0.0598 | 0.12 | 50.6 |
| NC1=N[C@@](c2cc(NS(=O)(=O)c3ccc(Cl)cn3)ccc2F)(C(F)F)[C@H]2C[C@H]2O1 [Example 421, N-(3-((1R,5S,6R)-3-amino-5-(difluoromethyl)-2-oxa-4-azabicyclo[4.1.0]hept-3-en-5-yl)-4-fluorophenyl)-5-chloropyridine-2-sulfonamide] | 14.2 | > 15.6 | 224 |
| CC(C)c1cc(Cl)cnc1C(=O)Nc1ccc(F)c([C@@]2(C(F)F)N=C(N)O[C@@H]3C[C@@H]32)c1 [Example 289, N-(3-((1R,5S,6R)-3-amino-5-(difluoromethyl)-2-oxa-4-azabicyclo[4.1.0]hept-3-en-5-yl)-4-fluorophenyl)-5-chloro-3-isopropylpicolinamide] | 0.305 | 0.116 | 700 |
| NC1=N[C@](CF)(c2cc(Nc3nccc4cc(Cl)cnc34)cc(F)c2F)[C@@H]2C[C@@H]2O1 [Example 341, (1S,5S,6S)-5-(5-((3-chloro-1,7-naphthyridin-8-yl)amino)-2,3-difluorophenyl)-5-(fluoromethyl)-2-oxa-4-azabicyclo[4.1.0]hept-3-en-3-amine] | 3.41 | 3.41 | 2890 |
| C[C@]1(c2nc(NC(=O)c3ccc(C#N)cn3)ccc2F)N=C(N)O[C@@H]2C[C@@H]21 [Example 324, N-(6-((1R,5S,6R)-3-amino-5-methyl-2-oxa-4-azabicyclo[4.1.0]hept-3-en-5-yl)-5-fluoropyridin-2-yl)-5-cyanopicolinamide] | 0.149 | 0.0283 | 182 |
| CS(=O)(=O)c1ccc(C(=O)Nc2ccc(F)c([C@@]3(C(F)F)N=C(N)O[C@@H]4C[C@@H]43)c2)nc1 [Example 182, N-(3-((1R,5S,6R)-3-amino-5-(difluoromethyl)-2-oxa-4-azabicyclo[4.1.0]hept-3-en-5-yl)-4-fluorophenyl)-5-(methylsulfonyl) picolinamide] | 13.1 | 3.36 | 565 |
| COC[C@]1(c2cc(NC(=O)c3cnc(OC)cn3)ccc2F)N=C(N)O[C@@H]2C[C@@H]21 [Example 80, N-(3-((1R,5S,6R)-3-amino-5-(methoxymethyl)-2-oxa-4-azabicyclo[4.1.0]hept-3-en-5-yl)-4-fluorophenyl)-5-methoxypyrazine-2-carboxamide] | 7.95 | 0.183 | > 400 |
| NC1=N[C@@](c2cc(NC[C@H]3C[C@H]3c3ccccc3)ccc2F)(C(F)F)[C@H]2C[C@H]2O1 [Example 372, (1R,5S,6R)-5-(difluoromethyl)-5-(2-fluoro-5-((((1(S,R),2(R,S))-2-phenylcyclopropyl)methyl)amino)phenyl)-2-oxa-4-azabicyclo[4.1.0]hept-3-en-3-amine] | 9.42 | 4.94 | 85.5 |
| NC1=N[C@@](c2cc(Nc3nccc4nc(C(F)(F)F)cnc34)ccc2F)(C(F)F)[C@H]2C[C@H]2O1 [Example 365, (1R,5S,6R)-5-(difluoromethyl)-5-(2-fluoro-5-((2-(trifluoromethyl)pyrido[3,4-b]pyrazin-5-yl)amino)phenyl)-2-oxa-4-azabicyclo[4.1.0]hept-3-en-3-amine] | 0.205 | 0.254 | > 44.4 |
| NC1=N[C@@](c2cc(NC(=O)C3CCCCC3)ccc2F)(C(F)F)[C@H]2C[C@H]2O1 [Example 239, N-(3-((1R,5S,6R)-3-amino-5-(difluoromethyl)-2-oxa-4-azabicyclo[4.1.0]hept-3-en-5-yl)-4-fluorophenyl) cyclohexanecarboxamide] | > 40 | > 15.6 | > 400 |
| NC1=N[C@@](c2cc(Nc3ncnc4cc(C(F)(F)F)cnc34)ccc2F)(C(F)F)[C@H]2C[C@H]2O1 [Example 449, (1R,5S,6R)-5-(difluoromethyl)-5-(2-fluoro-5-((7-(trifluoromethyl)pyrido[3,2-d]pyrimidin-4-yl)amino)phenyl)-2-oxa-4-azabicyclo[4.1.0]hept-3-en-3-amine] | 0.124 | 0.268 | 79.4 |
| NC1=N[C@@](CF)(c2cc(NC(=O)c3ccc(Br)cn3)ccc2Cl)[C@@H]2C[C@@H]2O1 [Example 275, N-(3-((1S,5R,6S)-3-amino-5-(fluoromethyl)-2-oxa-4-azabicyclo[4.1.0]hept-3-en-5-yl)-4-chlorophenyl)-5-bromopicolinamide] | 3.6 | 0.906 | 1130 |

These reach a lower IC50 [1]. Values come first.

| IC50 [1] [µM] | IC50 (BACE) [µM] | IC50 (Cathepsin D (Cat D)) [µM] | Structure (SMILES) |
| --- | --- | --- | --- |
| 0.0356 | 0.013 | 592 | NC1=N[C@@](c2cc(NC(=O)c3cnc(OCc4cocn4)cn3)ccc2Cl)(C(F)F)[C@H]2C[C@H]2O1 [Example 102, N-(3-((1R,5S,6R)-3-amino-5-(difluoromethyl)-2-oxa-4-azabicyclo[4.1.0]hept-3-en-5-yl)-4-chlorophenyl)-5-(oxazol-4-ylmethoxy)pyrazine-2-carboxamide] |
| 0.0338 | 0.0152 | 349 | Cc1cc(Cl)cnc1C(=O)Nc1ccc(F)c([C@@]2(CF)N=C(N)O[C@@H]3C[C@@H]32)c1 [Example 198, N-(3-((1R,5S,6R)-3-amino-5-(fluoromethyl)-2-oxa-4-azabicyclo[4.1.0]hept-3-en-5-yl)-4-fluorophenyl)-5-chloro-3-methylpicolinamide] |
| 0.0319 | 0.0628 | > 14.8 | N#Cc1cnc2c(Nc3ccc(Cl)c([C@@]4(C(F)F)N=C(N)O[C@@H]5C[C@@H]54)c3)ncc(F)c2c1 [Example 350, 8-((3-((1R,5S,6R)-3-amino-5-(difluoromethyl)-2-oxa-4-azabicyclo[4.1.0]hept-3-en-5-yl)-4-chlorophenyl)amino)-5-fluoro-1,7-naphthyridine-3-carbonitrile] |
| 0.0291 | 0.0808 | 2000 | NC1=N[C@@](c2cc(NC(=O)c3cnc(OCC(F)(F)F)cn3)ccc2F)(C(F)F)[C@H]2C[C@H]2O1 [Example 160, N-(3-((1R,5S,6R)-3-amino-5-(difluoromethyl)-2-oxa-4-azabicyclo[4.1.0]hept-3-en-5-yl)-4-fluorophenyl)-5-(2,2,2-trifluoroethoxy)pyrazine-2-carboxamide] |
| 0.017 | 0.151 | 198 | N#Cc1cnc(C(=O)Nc2ccc(F)c([C@@]3(C(F)F)N=C(N)O[C@@H]4C[C@@H]43)c2)c(CO)c1 [Example 396, N-(3-((1R,5S,6R)-3-amino-5-(difluoromethyl)-2-oxa-4-azabicyclo[4.1.0]hept-3-en-5-yl)-4-fluorophenyl)-5-cyano-3-(hydroxymethyl)picolinamide] |
| 0.0129 | 0.003 | 303 | CC#CCOc1cnc(C(=O)Nc2ccc(F)c([C@@]3(C)N=C(N)O[C@@H]4C[C@@H]43)c2)c(C)c1 [Example 56, N-(3-((1R,5S,6R)-3-amino-5-methyl-2-oxa-4-azabicyclo[4.1.0]hept-3-en-5-yl)-4-fluorophenyl)-5-(but-2-yn-1-yloxy)-3-methylpicolinamide] |
| 0.0121 | 2.5 | 228 | NC1=N[C@@](c2cc(NC(=O)c3cnc(OCC4CCCCC4)cn3)ccc2F)(C(F)F)[C@H]2C[C@H]2O1 [Example 416, N-(3-((1R,5S,6R)-3-amino-5-(difluoromethyl)-2-oxa-4-azabicyclo[4.1.0]hept-3-en-5-yl)-4-fluorophenyl)-5-(cyclohexylmethoxy)pyrazine-2-carboxamide] |
| 0.0105 | 0.0252 | 510 | NC1=N[C@@](c2cc(NC(=O)c3nn(C(F)F)cc3Cl)ccc2Cl)(C(F)F)[C@H]2C[C@H]2O1 [Example 224, N-(3-((1R,5S,6R)-3-amino-5-(difluoromethyl)-2-oxa-4-azabicyclo[4.1.0]hept-3-en-5-yl)-4-chlorophenyl)-4-chloro-1-(difluoromethyl)-1H-pyrazole-3-carboxamide] |
| 0.0098 | 0.0198 | 158 | NC1=N[C@@](c2cc(NC(=O)c3nn(C(F)F)cc3Cl)cc(F)c2F)(C(F)F)[C@H]2C[C@H]2O1 [Example 114, N-(3-((1R,5S,6R)-3-amino-5-(difluoromethyl)-2-oxa-4-azabicyclo[4.1.0]hept-3-en-5-yl)-4,5-difluorophenyl)-4-chloro-1-(difluoromethyl)-1H-pyrazole-3-carboxamide] |
